This note sets out measurements from ChEMBL document CHEMBL1122105, “Synthesis, decomposition kinetics, and preliminary toxicological studies of pure N-acetyl-p-benzoquinone imine, a proposed toxic metabolite of acetaminophen” (J Med Chem, 1982).

A short description of series [1]: Half life was determined. It is filed as ADME. Particulars: rat.
Series [2] in a line: Toxicity in mice 24 hr after ip administration. Particulars: mouse, in vivo. It is filed as organism-based.
The nature of series [3]: Second order rate constant was determined. The class given is functional.
The nature of series [4]: Rate constant was determined. The class given is functional.

For orientation: half-life means how long it takes for the measured level to halve. A higher half-life goes with slow loss. The LD50 is the dose at which mortality reaches 50%. Read a low LD50 as greater toxicity. In series [1], `CC(=O)N=C1C=CC(=O)C=C1` had a half-life of 11 min. This molecule showed an LD50 at 24 h in series [2] of 20 mg/kg. In series [3], this molecule displayed a Second order of 0.625 M/s. The same molecule showed a Rate constant in series [4] of 0.00011 M/s.

Consider `CC(=O)Nc1ccc(O)cc1` [ACETAMINOPHEN], for which, in series [2], the LD50 at 24 h worked out at 500 mg/kg.
